Data from patent US10143695B2 (priority 2016, dated 2018).

Key:
Assay type in all cases: cell-based
[1] = system: NCI-N87 cells (HER2 expressing cells); test: CellTiter-Glo cell viability assay, NCI-N87; details: Homo sapiens, NCI-N87; PBD compounds, 72 h incubation
Protocol: (§1) PBD compounds and conjugates thereof were evaluated for their antiproliferation properties in tumor cell lines in vitro using CellTiter-Glo® (Promega Corp). Cells were plated in black walled 96-well plate and allowed to adhere overnight at 37° C. in a humidified atmosphere of 5% CO2. BT474, SKBR3, NCI-N87 cells (HER2 expressing cells), JIMT1 cells (HER2 medium expression level cells) and MCF7 cells (HER2 low expressing levels cells) and were plated at a density of 5,000 cells per well. The next day the medium was replaced with 50 μL fresh medium and 50 μL of 2× stocks of PBD compounds or antibody-PBD conjugate were added to appropriate wells, mixed and incubated for 72 h. CellTiter-Glo® reagent was added to the wells at room temperature and the luminescent signal was measured after 10 min using a SpectraMax M5 plate reader (Molecular Devices). Dose response curves were generated using SoftMax Pro software. IC50 values were determined from four-parameter curve fitting.

[2] = system: JIMT1 cells (HER2 medium expression level cells); test: CellTiter-Glo cell viability assay, JIMT1; details: Homo sapiens, JIMT-1; PBD compounds, 72 h incubation
Protocol: as §1

[3] = system: BT474 cells (HER2 expressing cells); test: CellTiter-Glo cell viability assay, BT474; details: Homo sapiens, BT-474; PBD compounds, 72 h incubation
Protocol: as §1

[4] = system: MCF7 cells (HER2 low expressing levels cells); test: CellTiter-Glo cell viability assay, MCF7; details: Homo sapiens, MCF7; PBD compounds, 72 h incubation
Protocol: as §1

[5] = system: SKBR3 cells (HER2 expressing cells); test: CellTiter-Glo cell viability assay, SKBR3; details: Homo sapiens, SK-BR-3; PBD compounds, 72 h incubation
Protocol: as §1

SMILES	IC50 [1]	IC50 [2]	IC50 [3]	IC50 [4]	IC50 [5]
C=C1C[C@H]2C=Nc3cc(OCCCC(=O)Nc4cn(C)c(C(=O)Nc5cc(C(=O)Nc6cc(C(=O)N7CCc8cc(N)ccc87)n(C)c6)n(C)c5)n4)c(OC)cc3C(=O)N2C1 [Compound 77, (S,Z)-N-(5-(5-(5-aminoindoline-1-carbonyl)-1-methyl-1H-pyrrol-3-ylcarbamoyl)-1-methyl-1H-pyrrol-3-yl)-4-(4-(7-methoxy-2-methylene-5-oxo-2,3,5,11a-tetrahydro-1H-benzo[e]pyrrolo[1,2-a][1,4]diazepin-8-yloxy)butanamido)-1-methyl-1H-imidazole-2-carboxamide]	6.4 nM	8.6 nM	37.1 nM	14.9 nM	1.4 nM
COc1cc2c(cc1OCCCC(=O)Nc1cc(C(=O)Nc3cc(C(=O)Nc4cc(C(=O)NCCCO)n(C)c4)n(C)c3)n(C)c1)N=C[C@@H]1CCCN1C2=O [Compound 66, (S,Z)-N-(3-hydroxypropyl)-4-(4-(4-(4-(7-methoxy-5-oxo-2,3,5,11a-tetrahydro-1H-benzo[e]pyrrolo[1,2-a][1,4]diazepin-8-yloxy)butanamido)-1-methyl-1H-pyrrole-2-carboxamido)-1-methyl-1H-pyrrole-2-carboxamido)-1-methyl-1H-pyrrole-2-carboxamide]	27 nM	15 nM	86 nM	121 nM	16 nM
C=C1C[C@H]2C=Nc3cc(OCCCC(=O)Nc4cn(C)c(C(=O)Nc5cc(C(=O)Nc6cc(C(=O)n7ccc8cc(S(C)(=O)=O)ccc87)n(C)c6)n(C)c5)n4)c(OC)cc3C(=O)N2C1 [Compound 20, (S,Z)-4-(4-(7-methoxy-2-methylene-5-oxo-2,3,5,11a-tetrahydro-1H-benzo[e]pyrrolo[1,2-a][1,4]diazepin-8-yloxy)butanamido)-1-methyl-N-(1-methyl-5-(1-methyl-5-(5-(methylsulfonyl)-1H-indole-1-carbonyl)-1H-pyrrol-3-ylcarbamoyl)-1H-pyrrol-3-yl)-1H-imidazole-2-carboxamide]	26 nM	19.9 nM	126 nM	202 nM	5.5 nM
C=C1C[C@H]2C=Nc3cc(OCCCC(=O)Nc4cn(C)c(C(=O)Nc5cc(C(=O)Nc6cc(C(=O)n7ccc8ccc(N)cc87)n(C)c6)n(C)c5)n4)c(OC)cc3C(=O)N2C1 [Compound 13A, (S,Z)-N-(5-(5-(6-amino-1H-indole-1-carbonyl)-1-methyl-1H-pyrrol-3-ylcarbamoyl)-1-methyl-1H-pyrrol-3-yl)-4-(4-(7-methoxy-2-methylene-5-oxo-2,3,5,11a-tetrahydro-1H-benzo[e]pyrrolo[1,2-a][1,4]diazepin-8-yloxy)butanamido)-1-methyl-1H-imidazole-2-carboxamide]	0.73 nM	3.6 nM	2.5 nM	4.4 nM	0.28 nM
COc1cc2c(cc1OCCCC(=O)Nc1cn(C)c(C(=O)Nc3cc(C(=O)Nc4cc(C(=O)n5ccc6cc(N)ccc65)n(C)c4)n(C)c3)n1)N=C[C@@H]1Cc3ccccc3N1C2=O [Compound 78, (S)-N-(5-((5-(5-amino-1H-indole-1-carbonyl)-1-methyl-1H-pyrrol-3-yl)carbamoyl)-1-methyl-1H-pyrrol-3-yl)-4-(4-((8-methoxy-6-oxo-12a,13-dihydro-6H-benzo[5,6][1,4]diazepino[1,2-a]indol-9-yl)oxy)butanamido)-1-methyl-1H-imidazole-2-carboxamide]	0.29 nM	1.1 nM	0.63 nM	1.9 nM	0.06 nM
C=C1C[C@H]2C=Nc3cc(OCCCC(=O)Nc4cn(C)c(C(=O)Nc5cc(C(=O)n6ccc7cc(N)ccc76)n(C)c5)n4)c(OC)cc3C(=O)N2C1 [Compound 12, (S,Z)-N-(5-(5-amino-1H-indole-1-carbonyl)-1-methyl-1H-pyrrol-3-yl)-4-(4-((7-methoxy-2-methylene-5-oxo-2,3,5,11a-tetrahydro-1H-benzo[e]pyrrolo[1,2-a][1,4]diazepin-8-yl)oxy)butanamido)-1-methyl-1H-imidazole-2-carboxamide]	7 nM	4.4 nM	2 nM	13.9 nM	0.4 nM
C=C1C[C@H]2C=Nc3cc(OCCCC(=O)Nc4cn(C)c(C(=O)Nc5cc(C(=O)Nc6cc(C(=O)N7Cc8ccc(N)cc8C7)n(C)c6)n(C)c5)n4)c(OC)cc3C(=O)N2C1 [Compound 6A, (S,Z)-N-(5-(5-(5-aminoisoindoline-2-carbonyl)-1-methyl-1H-pyrrol-3-ylcarbamoyl)-1-methyl-1H-pyrrol-3-yl)-4-(4-(7-methoxy-2-methylene-5-oxo-2,3,5,11a-tetrahydro-1H-benzo[e]pyrrolo[1,2-a][1,4]diazepin-8-yloxy)butanamido)-1-methyl-1H-imidazole-2-carboxamide]	4.2 nM	8.9 nM	5.3 nM	17.1 nM	1.5 nM
C=C1C[C@H]2C=Nc3cc(OCCCC(=O)Nc4cn(C)c(C(=O)Nc5cc(C(=O)N6Cc7ccc(N)cc7C6)n(C)c5)n4)c(OC)cc3C(=O)N2C1 [Compound 5A, (S,Z)-N-(5-(5-aminoisoindoline-2-carbonyl)-1-methyl-1H-pyrrol-3-yl)-4-(4-(7-methoxy-2-methylene-5-oxo-2,3,5,11a-tetrahydro-1H-benzo[e]pyrrolo[1,2-a][1,4]diazepin-8-yloxy)butanamido)-1-methyl-1H-imidazole-2-carboxamide]	5.3 nM	16 nM	2.9 nM	24.2 nM	0.97 nM
COc1cc2c(cc1OCCCC(=O)Nc1cc(C(=O)Nc3cc(C(=O)Nc4cc(C(=O)NCCCO)n(C)c4)n(C)c3)n(C)c1)N=C[C@@H]1Cc3ccccc3N1C2=O [Compound 69]	3 nM	1.5 nM	4.7 nM	69 nM	1.5 nM
C=C1C[C@H]2C=Nc3cc(OCCCC(=O)Nc4cn(C)c(C(=O)Nc5cc(C(=O)Nc6cc(C(=O)n7ncc8ccc(N)cc87)n(C)c6)n(C)c5)n4)c(OC)cc3C(=O)N2C1 [Compound 28, (S,Z)-N-(5-(5-(6-amino-1H-indazole-1-carbonyl)-1-methyl-1H-pyrrol-3-ylcarbamoyl)-1-methyl-1H-pyrrol-3-yl)-4-(4-(7-methoxy-2-methylene-5-oxo-2,3,5,11a-tetrahydro-1H-benzo[e]pyrrolo[1,2-a][1,4]diazepin-8-yloxy)butanamido)-1-methyl-1H-imidazole-2-carboxamide]	1.02 nM	0.6 nM	2.9 nM	2.6 nM	0.16 nM
C=C1C[C@H]2C=Nc3cc(OCCCC(=O)Nc4cn(C)c(C(=O)Nc5cc(C(=O)Nc6cc(C(=O)n7ncc8cc(N)ccc87)n(C)c6)n(C)c5)n4)c(OC)cc3C(=O)N2C1 [Compound 79, (S,Z)-N-(5-(5-(5-amino-1H-indazole-1-carbonyl)-1-methyl-1H-pyrrol-3-ylcarbamoyl)-1-methyl-1H-pyrrol-3-yl)-4-(4-(7-methoxy-2-methylene-5-oxo-2,3,5,11a-tetrahydro-1H-benzo[e]pyrrolo[1,2-a][1,4]diazepin-8-yloxy)butanamido)-1-methyl-1H-imidazole-2-carboxamide]	0.31 nM	2.1 nM	0.66 nM	2.6 nM	0.09 nM
C=C1C[C@H]2C=Nc3cc(OCCCC(=O)Nc4cn(C)c(C(=O)Nc5cc(C(=O)Nc6cc(C(=O)n7ccc8cc(SC)ccc87)n(C)c6)n(C)c5)n4)c(OC)cc3C(=O)N2C1 [Compound 19, (S,Z)-4-(4-(7-methoxy-2-methylene-5-oxo-2,3,5,11a-tetrahydro-1H-benzo[e]pyrrolo[1,2-a][1,4]diazepin-8-yloxy)butanamido)-1-methyl-N-(1-methyl-5-(1-methyl-5-(5-(methylthio)-1H-indole-1-carbonyl)-1H-pyrrol-3-ylcarbamoyl)-1H-pyrrol-3-yl)-1H-imidazole-2-carboxamide]	0.35 nM	1.34 nM	0.59 nM	2.1 nM	0.2 nM
C=C1C[C@H]2C=Nc3cc(OCCCC(=O)Nc4cn(C)c(C(=O)Nc5cc(C(=O)NCc6ccc(N)cc6)n(C)c5)n4)c(OC)cc3C(=O)N2C1 [Compound 3A, (S,Z)-N-(5-(4-aminobenzylcarbamoyl)-1-methyl-1H-pyrrol-3-yl)-4-(4-(7-methoxy-2-methylene-5-oxo-2,3,5,11a-tetrahydro-1H-benzo[e]pyrrolo[1,2-a][1,4]diazepin-8-yloxy)butanamido)-1-methyl-1H-imidazole-2-carboxamide]	14 nM	91 nM	69 nM	214 nM	9 nM
C=C1C[C@H]2C=Nc3cc(OCCCC(=O)Nc4cn(C)c(C(=O)Nc5cc(C(=O)Nc6cc(C(=O)n7ccc8cc(OC)ccc87)n(C)c6)n(C)c5)n4)c(OC)cc3C(=O)N2C1 [Compound 7A]	0.3 nM	1.1 nM	0.6 nM	2.7 nM	0.15 nM
